Measured values as given in patent US20060276464A1, “Diarylsulfone sulfonamides and use thereof” (Wyeth, priority 2005, published 2006).
Where two headings read alike, the source gives them in different places.

Molecular target: T1, SFRP-1 (Homo sapiens, UniProt Q8N474)
T1 sequence (Q8N474 32-314): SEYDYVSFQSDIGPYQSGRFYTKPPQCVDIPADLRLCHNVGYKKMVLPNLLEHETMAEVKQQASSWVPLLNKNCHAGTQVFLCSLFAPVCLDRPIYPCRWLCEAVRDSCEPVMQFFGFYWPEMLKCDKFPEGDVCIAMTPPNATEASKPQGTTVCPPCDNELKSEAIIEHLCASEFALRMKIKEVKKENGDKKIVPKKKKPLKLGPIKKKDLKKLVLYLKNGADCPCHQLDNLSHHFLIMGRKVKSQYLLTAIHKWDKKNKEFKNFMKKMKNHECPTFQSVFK
Assay: Cell-based assay for in vitro measurement of SFRP-1/SARP2 antagonist activity (U2OS cells co-transfected with 16x TCF-tk-Luciferase reporter, Wnt and hSFRP-1);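 further: U2OS cells co-transfected with a TCF-tk luciferase reporter, a Wnt vector, hSFRP-1 or empty vector and CMV-βgal, luciferase luminescence read in cell lysates alongside βgal activity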

[1] = U2OS, read-out: Fold Induction with SFRP-1, Conc 30 μM, with SFRP-1, fold induction over SFRP-1 control, single dose
[2] = U2OS, read-out: Fold Induction without SFRP-1, Conc 30 μM, without SFRP-1, single dose
[3] = U2OS, read-out: Fold Induction with SFRP-1, Conc 15 μM, with SFRP-1, fold induction over SFRP-1 control, single dose
[4] = U2OS, read-out: Fold Induction without SFRP-1, Conc 15 μM, without SFRP-1, single dose
[5] = U2OS, read-out: Fold Induction with SFRP-1, Conc 15 μM, single dose, luciferase reporter, fold induction over SFRP-1 control, cells with SFRP-1
[6] = U2OS, read-out: Fold Induction without SFRP-1, Conc 15 μM, single dose, luciferase reporter, cells without SFRP-1 (specificity control)

Row | Compound | fold induction at 15 µM [3] | fold induction at 15 µM [4] | other results
1 | O=C1CCCN1CCCNS(=O)(=O)c1cccc(S(=O)(=O)c2ccccc2)c1 [Example 192, N-[3-(2-oxopyrrolidin-1-yl)propyl]-3-(phenylsulfonyl)benzenesulfonamide] |  |  | fold induction at 30 µM [1]: 1.1; fold induction at 30 µM [2]: 1.1
2 | Cc1ccc(S(=O)(=O)c2cccc3ccccc23)cc1S(=O)(=O)NCCc1ccccn1 [Example 410, 2-methyl-5-(1-naphthylsulfonyl)-N-(2-pyridin-2-ylethyl)benzenesulfonamide] | 2.7 | 1.3 | 
3 | CCc1ccc(S(=O)(=O)c2ccccc2)cc1S(=O)(=O)NCCc1cccc(OC)c1 [Example 143, 2-ethyl-N-[2-(3-methoxyphenyl)ethyl]-5-(phenylsulfonyl)benzenesulfonamide] | 3.3 | 0.7 | 
4 | CCc1ccc(S(=O)(=O)c2ccc(F)cc2)cc1S(=O)(=O)NCC(O)c1ccccc1 (centres unmarked) [Example 388, 2-ethyl-5-[(4-fluorophenyl)sulfonyl]-N-(2-hydroxy-2-phenylethyl)benzenesulfonamide] | 2.2 | 1.1 | 
5 | O=S(=O)(NCCc1ccccn1)c1cccc(S(=O)(=O)c2ccccc2)c1 [Example 184, 3-(phenylsulfonyl)-N-(2-pyridin-2-ylethyl)benzenesulfonamide] |  |  | fold induction at 30 µM [1]: 1.2; fold induction at 30 µM [2]: 0.9
6 | Cc1ccc(S(=O)(=O)c2ccccc2)cc1S(=O)(=O)NCCC1CCCN1C (centres unmarked) [Example 207, 2-methyl-N-[2-(1-methylpyrrolidin-2-yl)ethyl]-5-(phenylsulfonyl)benzenesulfonamide] | 2.3 | 1.1 | 
7 | COC(=O)CCNS(=O)(=O)c1cccc(S(=O)(=O)c2ccccc2)c1 [Example 182, methyl N-{[3-(phenylsulfonyl)phenyl]sulfonyl}-beta-alaninate] |  |  | fold induction at 30 µM [1]: 1; fold induction at 30 µM [2]: 1
8 | Cc1ccc(S(=O)(=O)c2ccc(F)cc2)cc1S(=O)(=O)NCC1CCOCC1 [Example 383, 5-[(4-fluorophenyl)sulfonyl]-2-methyl-N-(tetrahydro-2H-pyran-4-ylmethyl)benzenesulfonamide] | 2.1 | 0.9 | 
9 | CN1CCCC1CCNS(=O)(=O)c1cccc(S(=O)(=O)c2ccccc2)c1 (centres unmarked) [Example 186, N-[2-(1-methylpyrrolidin-2-yl)ethyl]-3-(phenylsulfonyl)benzenesulfonamide] |  |  | fold induction at 30 µM [1]: 1.3; fold induction at 30 µM [2]: 1.3
10 | CC(=O)c1cccc(S(=O)(=O)c2ccc(C)c(S(=O)(=O)NCCc3ccccn3)c2)c1 [Example 419, 5-[(3-acetylphenyl)sulfonyl]-2-methyl-N-(2-pyridin-2-ylethyl)benzenesulfonamide] | 2.5 | 1.3 | 
11 | Cc1ccc(S(=O)(=O)c2ccccc2)cc1S(=O)(=O)NC(=O)[C@@H](N)Cc1ccccc1 [Example 364, N-{[2-methyl-5-(phenylsulfonyl)phenyl]sulfonyl}-L-phenylalaninamide] | 1.2 | 1 | 
12 | O=S(=O)(NCCc1ccncc1)c1cccc(S(=O)(=O)c2ccccc2)c1 [Example 187, 3-(phenylsulfonyl)-N-(2-pyridin-4-ylethyl)benzenesulfonamide] |  |  | fold induction at 30 µM [1]: 1.9; fold induction at 30 µM [2]: 1
13 | Cc1ccc(S(=O)(=O)c2ccc(F)cc2)cc1S(=O)(=O)NC1Cc2ccccc2C1 [Example 249, N-2,3-dihydro-1H-inden-2-yl-5-[(4-fluorophenyl)sulfonyl]-2-methylbenzenesulfonamide] |  |  | fold induction at 20 µM (U2OS, read-out: Fold Induction with SFRP-1, Conc 20 μM, with SFRP-1, fold induction over SFRP-1 control, single dose): 1.9; fold induction at 20 µM (U2OS, read-out: Fold Induction without SFRP-1, Conc 20 μM, without SFRP-1, single dose): 0.8
14 | O=S(=O)(NC1CCNCC1)c1cc(S(=O)(=O)c2ccccc2)ccc1Cl [Example 624, 2-chloro-5-(phenylsulfonyl)-N-piperidin-4-ylbenzenesulfonamide] |  |  | fold induction at 15 µM [5]: 2.7; fold induction at 15 µM [6]: 1.2
15 | CCc1ccc(S(=O)(=O)c2ccccc2)cc1S(=O)(=O)N1CCN(CC(=O)N2CCCC2)CC1 [Example 285, 1-{[2-ethyl-5-(phenylsulfonyl)phenyl]sulfonyl}-4-(2-oxo-2-pyrrolidin-1-ylethyl)piperazine] | 2 | 1.1 | 
16 | Cc1cc(C)c(S(=O)(=O)c2ccccc2)cc1S(=O)(=O)NCC(O)c1ccccc1 (centres unmarked) [Example 389, N-(2-hydroxy-2-phenylethyl)-2,4-dimethyl-5-(phenylsulfonyl)benzenesulfonamide] | 1.5 | 1.1 | 

Row | Compound | fold induction at 15 µM [3] | fold induction at 15 µM [4] | other results
17 | CCN(CC)CCCNS(=O)(=O)c1cc(S(=O)(=O)c2ccccc2)ccc1OC [Example 241, N-[3-(diethylamino)propyl]-2-methoxy-5-(phenylsulfonyl)benzenesulfonamide] | 1.8 | 1.1 | 
18 | Cc1cc(C)c(S(=O)(=O)c2ccccc2)cc1S(=O)(=O)NCCc1ccccn1 [Example 326, 2,4-dimethyl-5-(phenylsulfonyl)-N-(2-pyridin-2-ylethyl)benzenesulfonamide] | 2.4 | 1 | 
19 | CCN(CC)CCNS(=O)(=O)c1cc(S(=O)(=O)c2ccc(F)cc2)ccc1C [Example 171, N-[2-(diethylamino)ethyl]-5-[(4-fluorophenyl)sulfonyl]-2-methylbenzenesulfonamide] | 2.2 | 1.2 | 
20 | Cc1ccc(S(=O)(=O)c2ccc(F)cc2)cc1S(=O)(=O)NCC(O)c1ccccc1 (centres unmarked) [Example 387, 5-[(4-fluorophenyl)sulfonyl]-N-(2-hydroxy-2-phenylethyl)-2-methylbenzenesulfonamide] | 1.7 | 1.4 | 
21 | C[C@H](CNS(=O)(=O)c1cccc(S(=O)(=O)c2ccccc2)c1)c1ccccc1 [Example 263, N-[(2S)-2-phenylpropyl]-3-(phenylsulfonyl)benzenesulfonamide] | 0.8 | 1.1 | 
22 | CCOc1cc(CCNS(=O)(=O)c2cc(S(=O)(=O)c3ccccc3)ccc2C)ccc1OC [Example 54, N-[2-(3-ethoxy-4-methoxyphenyl)ethyl]-2-methyl-5-(phenylsulfonyl)benzenesulfonamide] |  |  | Fold Induction with SFRP-1 (Conc 30 μM, with SFRP-1, fold induction over SFRP-1 control, single dose): 3.6 fold; fold induction at 30 µM [1]: 3.8; fold induction at 30 µM [2]: 1.1
23 | Cc1ccc(S(=O)(=O)c2ccccc2)cc1S(=O)(=O)NCCc1ccc2c(c1)OCO2 [Example 43, N-[2-(1,3-benzodioxol-5-yl)ethyl]-2-methyl-5-(phenylsulfonyl)benzenesulfonamide] |  |  | fold induction at 30 µM [1]: 3.6; fold induction at 30 µM [2]: 1
24 | Cc1ccc(S(=O)(=O)c2ccccc2)cc1S(=O)(=O)N[C@H]1CCCC[C@@H]1O (relative stereo) [Example 412, N-[(1S*,2S*)-2-hydroxycyclohexyl]-2-methyl-5-(phenylsulfonyl)benzenesulfonamide] | 1.9 | 1.5 | 
25 | Cc1ccc(S(=O)(=O)c2ccccc2)cc1S(=O)(=O)N1CCN(CCN2CCOCC2)CC1 [Example 281, 4-[2-(4-{[2-methyl-5-(phenylsulfonyl)phenyl]sulfonyl}piperazin-1-yl)ethyl]morpholine] | 2.8 | 1.3 | 
26 | COC(=O)CCNS(=O)(=O)c1cc(S(=O)(=O)c2ccc(F)cc2)ccc1C [Example 160, methyl N-({5-[(4-fluorophenyl)sulfonyl]-2-methylphenyl}sulfonyl)-beta-alaninate] | 2.4 | 0.9 | 
27 | Cc1ccc(S(=O)(=O)c2ccc(N3CCCCC3)cc2)cc1S(=O)(=O)NCCCn1ccnc1 [Example 312, N-[3-(1H-imidazol-1-yl)propyl]-2-methyl-5-[(4-piperidin-1-ylphenyl)sulfonyl]benzenesulfonamide] | 1.6 | 0.9 | 
28 | CC(=O)NCCNS(=O)(=O)c1cc(S(=O)(=O)c2ccc(F)cc2)ccc1C [Example 168, N-{2-[({5-[(4-fluorophenyl)sulfonyl]-2-methylphenyl}sulfonyl)amino]ethyl}acetamide] | 1.7 | 0.9 | 
29 | O=S(=O)(NCCc1ccc(Br)cc1)c1cc(S(=O)(=O)c2ccccc2)ccc1C(F)(F)F [Example 960, N-[2-(4-bromophenyl)ethyl]-5-(phenylsulfonyl)-2-(trifluoromethyl)benzenesulfonamide] |  |  | fold induction at 10 µM (U2OS, read-out: Fold Induction with SFRP-1, U2OS cells, single dose 10 μM, luciferase reporter, fold induction over SFRP-1 control): 1.4
30 | CN(CCc1ccccn1)S(=O)(=O)c1cc(S(=O)(=O)c2ccccc2)ccc1Cl [Example 646, 2-chloro-N-methyl-5-(phenylsulfonyl)-N-(2-pyridin-2-ylethyl)benzenesulfonamide] |  |  | fold induction at 15 µM [5]: 1; fold induction at 15 µM [6]: 1.1
31 | CCc1ccc(S(=O)(=O)c2ccccc2)cc1S(=O)(=O)NCCc1ccccc1OC [Example 142, 2-ethyl-N-[2-(2-methoxyphenyl)ethyl]-5-(phenylsulfonyl)benzenesulfonamide] | 3.2 | 1.3 | 
